Assay results published in patent US10017527B2, “KLK4 inhibitors” (Universiteit Antwerpen, priority 2014, dated 2018).
Read-outs that look alike come from different tables or passages of the source.

Legend:
Type in all cases: biochemical
KLK4 [1] = molecular target: T1, KLK4 (Homo sapiens, UniProt Q9Y5K2); test: KLK4 enzymatic inhibition, fluorogenic substrate Boc-Val-Pro-Arg-AMC
T1 construct: purchased Viktor Magdolen (TUM), supplied by an academic laboratory
Procedure: The substrate was obtained form Bachem and the enzyme was provided by Viktor Magdolen (TUM). The reaction was monitored with an excitation wavelength of 355 nm and emission wavelength of 460 nm. The initial rate was determined between 2500000 and 4500000 mRFU/min. The reaction mixture contained 25 μM substrate and approximately 1 mU of enzyme in 145 μL of buffer in a final volume of […]. A 50 mM Tris buffer, pH 8.3, was used. From each inhibitor concentration, 5 μL was added, obtaining a final concentration from 0 to 250 μM in a total volume of 0.2 mL. Activity measurements were routinely performed in duplicate. […] IC50 values were obtained by fitting the data with the four-parameter logistics equation using Grafit 7.
[formula] where s=slope factor, v=rate, I0=inhibitor concentration, and range=the fitted uninhibited value minus the background. The equation assumes they falls with increasing x.
(§1) Inhibitor stock solutions were prepared in DMSO and stored at −20° C. Because the compounds described in this paper completely inactivate KLK4 following pseudo first-order kinetics, the IC50 value is inversely correlated with the second-order rate constant of inactivation. For a simple pseudo first-order inactivation process, the activity after incubation with inhibitor (vi) varies with the inhibitor concentration (i), as described in the following equation: vi=v0×e^−k t, where vo is the activity in absence of inhibitor, k is the second-order rate constant of inactivation, and t is the time. The inactivation rate constant was determined from the time course of inhibition.

KLK2 (human) = molecular target: T2, KLK2 (human) (Homo sapiens, UniProt P20151); test: KLK2 inhibition, fluorogenic substrate H-Pro-Phe-Arg-AMC
T2 construct: purchased Viktor Magdolen, TUMunich (TUM), supplied by an academic laboratory
T2 sequence (P20151 25-261): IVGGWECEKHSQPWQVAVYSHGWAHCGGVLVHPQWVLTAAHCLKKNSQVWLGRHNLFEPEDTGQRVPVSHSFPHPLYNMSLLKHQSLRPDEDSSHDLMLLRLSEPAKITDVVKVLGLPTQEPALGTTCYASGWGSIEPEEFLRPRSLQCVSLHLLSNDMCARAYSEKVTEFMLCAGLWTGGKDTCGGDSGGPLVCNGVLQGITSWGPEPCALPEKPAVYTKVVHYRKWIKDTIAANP
From the text: (§2) The IC50 values For KLK1, KLK2 and KLK8 were obtained in a similar way. For plasmin, tPA, thrombin, Fxa, HNE, Plasma kallikrein Chromogenic substrates were used (absorption: 405 nm). (KLK2, KLK4, KLK8 were supplied by Viktor Magdolen TUMunich (TUM)).

KLK1 (human) = molecular target: T3, KLK1 (human) (Homo sapiens, UniProt P06870); test: KLK1 inhibition, fluorogenic substrate H-Pro-Phe-Arg-AMC
T3 construct: purchased Prospec
T3 sequence (P06870 25-262): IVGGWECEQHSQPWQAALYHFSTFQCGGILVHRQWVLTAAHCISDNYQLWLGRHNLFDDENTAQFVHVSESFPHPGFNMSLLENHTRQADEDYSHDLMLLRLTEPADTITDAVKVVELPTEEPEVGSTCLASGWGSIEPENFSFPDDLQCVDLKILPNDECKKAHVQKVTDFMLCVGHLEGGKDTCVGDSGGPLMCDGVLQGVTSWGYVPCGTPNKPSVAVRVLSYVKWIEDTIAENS
From the text: as §2

KLK8 (human) = molecular target: T4, KLK8 (human) (Homo sapiens, UniProt O60259); test: KLK8 inhibition, fluorogenic substrate Boc-Val-Pro-Arg-AMC
T4 construct: purchased Viktor Magdolen, TUMunich (TUM), supplied by an academic laboratory
T4 sequence (O60259 33-260): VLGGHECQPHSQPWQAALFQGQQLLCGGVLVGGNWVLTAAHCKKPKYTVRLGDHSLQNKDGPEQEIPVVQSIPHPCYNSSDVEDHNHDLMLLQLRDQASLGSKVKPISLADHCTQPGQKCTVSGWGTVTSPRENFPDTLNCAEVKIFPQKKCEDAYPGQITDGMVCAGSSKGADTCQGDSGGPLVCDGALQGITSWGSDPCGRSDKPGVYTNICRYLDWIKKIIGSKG
From the text: as §2

uPA (recombinant) = molecular target: T5, uPA (recombinant) (Homo sapiens, UniProt P00749); test: uPA inhibition, chromogenic substrate Biophen CS-61(44)
T5 construct: purchased Nodia

Plasmine (human plasma) = molecular target: T6, Plasmine (human plasma) (Homo sapiens, UniProt P00747); test: Plasmin inhibition, chromogenic substrate Biophen CS-21(66)
T6 construct: purchased Sigma-Aldrich; host or cells: human plasma
T6 sequence (P00747 581-810 limits assumed): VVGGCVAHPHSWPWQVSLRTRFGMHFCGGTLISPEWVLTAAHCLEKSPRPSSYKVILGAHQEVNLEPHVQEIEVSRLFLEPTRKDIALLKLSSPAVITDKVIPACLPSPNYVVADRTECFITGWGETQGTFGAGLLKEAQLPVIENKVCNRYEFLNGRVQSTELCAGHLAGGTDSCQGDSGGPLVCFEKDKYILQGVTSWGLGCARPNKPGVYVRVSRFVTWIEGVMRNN
T6 sequence (P00747 98-580 partner limits assumed): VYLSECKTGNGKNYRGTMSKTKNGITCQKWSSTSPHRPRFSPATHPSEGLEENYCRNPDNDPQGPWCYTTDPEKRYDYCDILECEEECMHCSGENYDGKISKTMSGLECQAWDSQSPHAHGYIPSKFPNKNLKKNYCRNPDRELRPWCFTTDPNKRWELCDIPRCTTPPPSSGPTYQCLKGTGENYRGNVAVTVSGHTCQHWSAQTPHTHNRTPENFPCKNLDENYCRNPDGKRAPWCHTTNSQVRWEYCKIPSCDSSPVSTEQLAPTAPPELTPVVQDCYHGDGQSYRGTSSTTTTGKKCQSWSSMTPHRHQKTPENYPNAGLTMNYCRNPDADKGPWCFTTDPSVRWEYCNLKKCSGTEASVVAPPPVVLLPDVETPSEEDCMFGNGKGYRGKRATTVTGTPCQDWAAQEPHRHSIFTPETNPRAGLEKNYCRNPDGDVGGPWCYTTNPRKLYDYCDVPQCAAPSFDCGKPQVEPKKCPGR
From the text: as §2

Matriptase = molecular target: T7, Matriptase (Homo sapiens, UniProt Q9Y5Y6); test: Matriptase inhibition
T7 sequence (Q9Y5Y6 1-855): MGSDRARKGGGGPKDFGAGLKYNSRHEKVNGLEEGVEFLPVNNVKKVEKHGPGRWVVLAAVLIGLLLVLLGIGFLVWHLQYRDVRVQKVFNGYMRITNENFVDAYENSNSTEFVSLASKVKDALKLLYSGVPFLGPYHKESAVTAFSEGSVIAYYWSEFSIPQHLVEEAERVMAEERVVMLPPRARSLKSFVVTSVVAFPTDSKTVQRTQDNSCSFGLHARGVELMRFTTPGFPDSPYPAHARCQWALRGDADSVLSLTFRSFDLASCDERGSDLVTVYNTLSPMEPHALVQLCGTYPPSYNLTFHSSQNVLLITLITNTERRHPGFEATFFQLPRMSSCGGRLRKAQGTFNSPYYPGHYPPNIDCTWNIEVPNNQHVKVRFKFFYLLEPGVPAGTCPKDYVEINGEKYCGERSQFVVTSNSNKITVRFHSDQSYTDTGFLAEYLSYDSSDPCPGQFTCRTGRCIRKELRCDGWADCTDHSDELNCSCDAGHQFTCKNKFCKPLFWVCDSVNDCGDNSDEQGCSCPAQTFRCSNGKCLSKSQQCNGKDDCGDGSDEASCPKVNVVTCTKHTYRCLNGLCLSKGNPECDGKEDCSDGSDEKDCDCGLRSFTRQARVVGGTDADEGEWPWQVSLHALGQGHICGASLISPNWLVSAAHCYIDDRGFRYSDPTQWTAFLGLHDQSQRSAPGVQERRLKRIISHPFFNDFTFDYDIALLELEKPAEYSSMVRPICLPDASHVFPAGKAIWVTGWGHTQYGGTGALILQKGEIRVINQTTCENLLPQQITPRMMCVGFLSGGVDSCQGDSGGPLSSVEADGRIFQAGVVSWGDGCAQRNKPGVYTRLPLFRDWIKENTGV

KLK4 [2] = molecular target: T1, KLK4; test: KLK4 inactivation kinetics from progress curves (kobs vs inhibitor concentration); details: for Irreversible (KLK4): irreversible binding to KLK4, Yes/No
Procedure: as §1
The inhibitor was mixed with the substrate (250 μM final concentration), and the buffer solution with the enzyme was added at the time zero. […] The progress curves show the absorbance of aminomethylcoumarine produced as a function of time. Initially, no inhibitor is bound to the enzyme, and the tangent to the progress curve (dA/dt) is proportional to the concentration of the free enzyme. The concentration of free enzyme decreases over time due to the kinetics of inhibitor binding, as described above. Progress curves were recorded in pseudo first-order conditions ([I]0>>[E]0) and with less than 10% conversion of the substrate during the entire time course. In these conditions, dA/dt decreases exponentially with time. The progress curves were fitted with the integrated rate equation to yield a value for kobs, a pseudofirst-order rate constant At=v0[1−e^−k^obs^t]/kobs+A0 where At=absorbance at time t, A0=absorbance at time zero, and v0=uninhibited initial rate.
The apparent second-order rate constant (kapp) was calculated from the slope of the linear part of the plot of kobs versus the inhibitor concentration ([I]0). In case of competition between the inhibitor and the substrate, kapp is smaller than the “real” second order rate constant k discussed above because a certain fraction of the enzyme is present as an enzyme-substrate complex. kapp depends on the substrate concentration used in the experiment, as described by Lambeir et al. (Lambeir, Borloo et al. 1996).

tPA (recombinant) = molecular target: T8, tPA (recombinant) (Homo sapiens, UniProt P00750); test: tPA inhibition, chromogenic substrate Biophen CS-05(88); details: Tris buffer pH 8.3; read-out: IC50 tPA
T8 construct: purchased Nodia
T8 sequence (P00750 36-562, species assumed): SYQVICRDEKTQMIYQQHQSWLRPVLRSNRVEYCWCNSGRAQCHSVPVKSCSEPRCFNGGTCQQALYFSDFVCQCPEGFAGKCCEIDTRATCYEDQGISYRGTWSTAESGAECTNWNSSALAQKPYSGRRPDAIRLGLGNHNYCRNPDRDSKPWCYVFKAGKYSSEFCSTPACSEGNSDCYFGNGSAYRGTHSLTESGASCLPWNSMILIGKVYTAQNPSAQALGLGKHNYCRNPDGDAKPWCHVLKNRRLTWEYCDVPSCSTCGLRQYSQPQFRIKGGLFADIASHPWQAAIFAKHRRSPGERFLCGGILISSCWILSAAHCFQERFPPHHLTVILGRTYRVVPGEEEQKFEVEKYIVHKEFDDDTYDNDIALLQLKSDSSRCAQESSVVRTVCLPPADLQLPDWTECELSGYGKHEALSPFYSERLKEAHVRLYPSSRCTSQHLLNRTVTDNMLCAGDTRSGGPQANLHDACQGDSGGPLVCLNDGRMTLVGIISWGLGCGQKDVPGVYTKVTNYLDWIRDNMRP
From the text: as §2

Thrombine (human plasma) = molecular target: T9, Thrombine (human plasma) (Homo sapiens, UniProt P00734); test: Thrombin inhibition, chromogenic substrate Biophen CS-21(66)
T9 construct: purchased Sigma-Aldrich; host or cells: human plasma

FXa = molecular target: T10, FXa (Homo sapiens, UniProt P00742); test: FXa inhibition, chromogenic substrate Biophen CS-11(32); details: Tris buffer pH 8.3; read-out: IC50 FXa
T10 construct: purchased Nodia
T10 sequence (P00742 235-488 limits assumed): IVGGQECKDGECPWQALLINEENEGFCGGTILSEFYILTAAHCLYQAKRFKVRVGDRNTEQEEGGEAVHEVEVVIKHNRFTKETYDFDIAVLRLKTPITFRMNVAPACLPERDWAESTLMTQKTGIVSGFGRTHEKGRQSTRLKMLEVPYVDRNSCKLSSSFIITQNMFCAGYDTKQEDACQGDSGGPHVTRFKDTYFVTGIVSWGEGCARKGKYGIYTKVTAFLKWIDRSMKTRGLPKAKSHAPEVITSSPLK
T10 sequence (P00742 41-179 partner limits assumed): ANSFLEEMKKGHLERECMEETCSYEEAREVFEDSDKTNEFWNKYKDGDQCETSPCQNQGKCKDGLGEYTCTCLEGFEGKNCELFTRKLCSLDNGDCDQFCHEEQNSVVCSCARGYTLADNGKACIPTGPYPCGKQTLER
From the text: as §2

PlasmaKLK (human plasma) = molecular target: T11, PlasmaKLK (human plasma) (Homo sapiens, UniProt P03952); test: Plasma kallikrein inhibition, chromogenic substrate Biophen CS-31(02); details: Plasma KLK; Tris buffer pH 7.8; read-out: IC50 pKLK
T11 construct: purchased Sigma-Aldrich; host or cells: human plasma
T11 sequence (P03952 391-638 limits assumed): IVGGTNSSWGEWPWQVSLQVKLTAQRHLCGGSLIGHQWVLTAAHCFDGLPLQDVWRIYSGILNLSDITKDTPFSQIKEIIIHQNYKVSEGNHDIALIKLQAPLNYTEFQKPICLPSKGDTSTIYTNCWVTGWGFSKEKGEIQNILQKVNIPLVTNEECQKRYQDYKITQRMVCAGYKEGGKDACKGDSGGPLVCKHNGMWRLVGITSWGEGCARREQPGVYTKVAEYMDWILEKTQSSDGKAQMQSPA
T11 sequence (P03952 20-390 partner limits assumed): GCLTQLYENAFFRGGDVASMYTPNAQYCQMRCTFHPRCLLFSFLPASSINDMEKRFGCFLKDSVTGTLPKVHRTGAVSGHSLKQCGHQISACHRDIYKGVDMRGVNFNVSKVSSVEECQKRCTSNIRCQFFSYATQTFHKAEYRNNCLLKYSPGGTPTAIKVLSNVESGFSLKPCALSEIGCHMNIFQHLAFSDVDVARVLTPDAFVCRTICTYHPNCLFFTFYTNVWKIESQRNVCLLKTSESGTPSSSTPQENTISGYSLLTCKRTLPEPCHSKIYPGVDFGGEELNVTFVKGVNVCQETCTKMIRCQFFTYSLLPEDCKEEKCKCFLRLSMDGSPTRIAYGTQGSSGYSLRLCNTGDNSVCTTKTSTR
From the text: as §2

[3] = 15 min pre-incubation at 37° C., Tris buffer pH 8.3, read-out: IC50 KLK4
[4] = Tris buffer pH 8.8, read-out: IC50 uPA
[5] = Thrombin, Tris buffer pH 8.3, read-out: IC50 THR
[6] = Plasmin, Tris buffer pH 7.4, read-out: IC50 PLM
[7] = Tris buffer pH 7.8, read-out: IC50 KLK1

T1 sequence (Q9Y5K2 31-254): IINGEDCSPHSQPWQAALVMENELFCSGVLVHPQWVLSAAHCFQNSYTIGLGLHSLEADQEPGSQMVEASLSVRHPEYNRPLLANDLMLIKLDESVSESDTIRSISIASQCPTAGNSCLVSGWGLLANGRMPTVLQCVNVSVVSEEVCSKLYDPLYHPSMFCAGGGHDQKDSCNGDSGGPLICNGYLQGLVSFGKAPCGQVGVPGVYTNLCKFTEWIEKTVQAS

Row | Compound | IC50 (KLK4 [1]) [µM] | IC50 (KLK2 (human)) [µM] | IC50 (KLK1 (human)) [µM] | IC50 (KLK8 (human)) [µM] | IC50 (uPA (recombinant)) [µM] | IC50 (Plasmine (human plasma)) [µM] | IC50 (Matriptase) [µM] | kapp KLK4 (KLK4 [2]; apparent second-order rate constant, substrate 250 μM) [M⁻¹ s⁻¹] | Irreversible (KLK4) (KLK4 [2]) | IC50 (KLK4 [1]; [3]) [µM] | IC50 (uPA (recombinant); [4]) [µM] | IC50 (tPA (recombinant)) [µM] | IC50 (Thrombine (human plasma); [5]) [µM] | IC50 (Plasmine (human plasma); [6]) [µM] | IC50 (FXa) [µM] | IC50 (PlasmaKLK (human plasma)) [µM] | IC50 (KLK1 (human); [7]) [µM] | IC50 (Matriptase; Matriptase, read-out: IC50 MAT) [µM] | IC50 (Thrombine (human plasma)) [µM]
1 | N=C(N)Nc1ccc(C(NC(=O)OCCCC(F)(F)F)P(=O)(Oc2ccccc2)Oc2ccccc2)cc1 (stereo not drawn) [Compound 107, 4,4,4-trifluorobutyl ((diphenoxyphosphoryl)(4-guanidinophenyl)methyl) carbamate] | < 0.1 | 0.1 to 1 | 2.5 to 10 | 2.5 to 10 | 2.5 to 10 | 10 to 250 | 2.5 to 10 | – | – | – | – | – | – | – | – | – | – | – | –
2 | CSCCOC(=O)NC(c1ccc(NC(=N)N)cc1)P(=O)(Oc1ccccc1)Oc1ccccc1 (stereo not drawn) [Compound 108, 2-(methylthio)ethyl ((diphenoxyphosphoryl)(4-guanidinophenyl)methyl) carbamate] | < 0.1 | 0.1 to 1 | 1 to 2.5 | 1 to 2.5 | 2.5 to 10 | 10 to 250 | 2.5 to 10 | – | – | – | – | – | – | – | – | – | – | – | –
3 | N=C(N)Nc1ccc(C(NC(=O)OCc2c(F)c(F)c(F)c(F)c2F)P(=O)(Oc2ccccc2)Oc2ccccc2)cc1 (stereo not drawn) [Compound 109, (perfluorophenyl)methyl ((diphenoxyphosphoryl)(4-guanidinophenyl)methyl) carbamate] | < 0.1 | 0.1 to 1 | 0.1 to 1 | 1 to 2.5 | 2.5 to 10 | 10 to 250 | 1 to 2.5 | – | – | – | – | – | – | – | – | – | – | – | –
4 | COCCOCCOCCOC(=O)NC(c1ccc(NC(=N)N)cc1)P(=O)(Oc1ccccc1)Oc1ccccc1 (stereo not drawn) [Compound 110, 2-(2-(2-methoxyethoxy)ethoxy)ethyl ((diphenoxyphosphoryl)(4-guanidinophenyl)methyl)carbamate] | < 0.1 | – | 2.5 to 10 | 1 to 2.5 | 2.5 to 10 | 10 to 250 | 2.5 to 10 | 19600 | Yes/ | – | – | – | – | – | – | – | – | – | –
5 | COCCOCCOC(=O)NC(c1ccc(NC(=N)N)cc1)P(=O)(Oc1ccc(NC(C)=O)cc1)Oc1ccc(NC(C)=O)cc1 (stereo not drawn) [Compound 114, 2-(2-methoxyethoxy)ethyl ((bis(4-acetamidophenoxy)phosphoryl)(4-guanidinophenyl)methyl) carbamate] | < 0.1 | 0.1 to 1 | 2.5 to 10 | 1 to 2.5 | 2.5 to 10 | 10 to 250 | 1 to 2.5 | – | – | – | – | – | – | – | – | – | – | – | –
6 | N=C(N)Nc1ccc(C(NS(=O)(=O)c2ccccc2)P(=O)(Oc2ccccc2)Oc2ccccc2)cc1 (stereo not drawn) [Compound 127, diphenyl ((4-guanidinophenyl)(phenylsulfonamido)methyl)phosphonate] | – | – | – | – | – | – | – | – | – | 2.5 to 10 | 2.5 to 10 | 2.5 to 10 | 2.5 to 10 | 2.5 to 10 | 2.5 to 10 | 2.5 to 10 | – | – | –
7 | N=C(N)Nc1ccc(C(NS(=O)(=O)c2ccc(C(F)(F)F)cc2)P(=O)(Oc2ccccc2)Oc2ccccc2)cc1 (stereo not drawn) [Compound 130] | – | – | – | – | – | – | – | – | – | < 0.1 | – | – | – | – | – | – | – | – | –
8 | N=C(N)Nc1ccc(C(NC(=O)OCCOCCOCc2cn(CCOCCOCCOCCNC(=O)CCCC[C@H]3SC[C@H]4NC(=O)N[C@H]43)nn2)P(=O)(Oc2ccccc2)Oc2ccccc2)cc1 (stereo partly drawn) [Compound 135, 2-(2-((1-(13-oxo-17-((3aR,4R,6aS)-2-oxohexahydro-1H-thieno[3,4-d]imidazol-4-yl)-3,6,9-trioxa-12-azaheptadecyl)-1H-1,2,3-triazol-4-yl)methoxy)ethoxy)ethyl ((diphenoxyphosphoryl)(4-guanidinophenyl)methyl)carbamate] | – | – | – | – | – | – | – | – | – | < 0.1 | 2.5 to 10 | – | 10 to 250 | 10 to 250 | 10 to 250 | 10 to 250 | 2.5 to 10 | 2.5 to 10 | –
9 | C#CCOCCOCCOC(=O)NC(Cc1ccc(NC(=N)N)cc1)P(=O)(Oc1ccccc1)Oc1ccccc1 (stereo not drawn) [UPA2, reference compound] | – | – | – | – | < 0.1 | – | – | – | No | – | – | > 250 | – | 2.5 to 10 | > 250 | 10 to 250 | – | 0.1 to 1 | 10 to 250
10 | diphenyl ((4-guanidinophenyl)(4-methoxyphenylsulfonamido)methyl)phosphonate [Compound 132] | – | – | – | – | – | – | – | – | – | 0.1 to 1 | 2.5 to 10 | 2.5 to 10 | 2.5 to 10 | 2.5 to 10 | 2.5 to 10 | 2.5 to 10 | 2.5 to 10 | – | –
11 | diphenyl ((4-guanidinophenyl)(phenylsulfonamido)methyl)phosphonate [Compound 128] | – | – | – | – | – | – | – | – | – | 0.1 to 1 | 2.5 to 10 | 2.5 to 10 | 2.5 to 10 | 2.5 to 10 | 2.5 to 10 | 2.5 to 10 | – | – | –
